Data from PubChem BioAssay (NCI).
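Interpolation was linear, between the two tested concentrations surrounding the appropriate level; five concentrations were tested over 48 hours in 96-well plates. TGI denotes the concentration required for complete inhibition of growth.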

How the values were obtained:
Assay in all cases: DTP human tumour cell line panel, 48 h
786-0 renal = tested on: 786-0 renal
A498 renal = tested on: A498 renal
A549 NSCLC = tested on: A549 NSCLC
ACHN renal = tested on: ACHN renal
CCRF-CEM leukemia = tested on: CCRF-CEM leukemia
COLO 205 colon = tested on: COLO 205 colon
DU-145 prostate = tested on: DU-145 prostate
EKVX NSCLC = tested on: EKVX NSCLC
HCC-2998 colon = tested on: HCC-2998 colon
HCT-116 colon = tested on: HCT-116 colon
HCT-15 colon = tested on: HCT-15 colon
HL-60(TB) leukemia = tested on: HL-60(TB) leukemia
HOP-62 NSCLC = tested on: HOP-62 NSCLC
HOP-92 NSCLC = tested on: HOP-92 NSCLC
HS 578T breast = tested on: HS 578T breast
HT29 colon = tested on: HT29 colon
IGROV1 ovarian = tested on: IGROV1 ovarian
K-562 leukemia = tested on: K-562 leukemia
KM12 colon = tested on: KM12 colon
LOX IMVI melanoma = tested on: LOX IMVI melanoma
M14 melanoma = tested on: M14 melanoma
MALME-3M melanoma = tested on: MALME-3M melanoma
MCF7 breast = tested on: MCF7 breast
MDA-MB-231 breast = tested on: MDA-MB-231 breast
MDA-MB-435 = tested on: MDA-MB-435
MOLT-4 leukemia = tested on: MOLT-4 leukemia
NCI-H226 lung = tested on: NCI-H226 lung
NCI-H23 lung = tested on: NCI-H23 lung
NCI-H460 lung = tested on: NCI-H460 lung
NCI/ADR-RES ovarian = tested on: NCI/ADR-RES ovarian
OVCAR-4 ovarian = tested on: OVCAR-4 ovarian
OVCAR-5 ovarian = tested on: OVCAR-5 ovarian
OVCAR-8 ovarian = tested on: OVCAR-8 ovarian
RPMI-8226 leukemia = tested on: RPMI-8226 leukemia
RXF 393 renal = tested on: RXF 393 renal
SF-268 CNS = tested on: SF-268 CNS
SF-295 CNS = tested on: SF-295 CNS
SF-539 CNS = tested on: SF-539 CNS
SK-MEL-28 melanoma = tested on: SK-MEL-28 melanoma
SK-MEL-5 melanoma = tested on: SK-MEL-5 melanoma
SK-OV-3 ovarian = tested on: SK-OV-3 ovarian
SN12C renal = tested on: SN12C renal
SNB-19 CNS = tested on: SNB-19 CNS
SNB-75 CNS = tested on: SNB-75 CNS
SR leukemia = tested on: SR leukemia
SW-620 colon = tested on: SW-620 colon
T-47D breast = tested on: T-47D breast
TK-10 renal = tested on: TK-10 renal
U251 CNS = tested on: U251 CNS
UACC-257 melanoma = tested on: UACC-257 melanoma
UACC-62 melanoma = tested on: UACC-62 melanoma
UO-31 renal = tested on: UO-31 renal
BT-549 breast = tested on: BT-549 breast
CAKI-1 renal = tested on: CAKI-1 renal
NCI-H522 lung = tested on: NCI-H522 lung
OVCAR-3 ovarian = tested on: OVCAR-3 ovarian
SK-MEL-2 melanoma = tested on: SK-MEL-2 melanoma

## Fc1ccc(C2(CCCN3CCc4[nH]c5cc(F)ccc5c4C3)OCCO2)cc1
786-0 renal
  TGI: 27.1 µM
A498 renal
  TGI: 28.9 µM
A549 NSCLC
  TGI: 29 µM
ACHN renal
  TGI: 23.5 µM
CCRF-CEM leukemia
  TGI: 31.4 µM
COLO 205 colon
  TGI: 24.1 µM
DU-145 prostate
  TGI: 28 µM
EKVX NSCLC
  TGI: 29.1 µM
HCC-2998 colon
  TGI: 4.21 µM
HCT-116 colon
  TGI: 24 µM
HCT-15 colon
  TGI: 31 µM
HL-60(TB) leukemia
  TGI: 25.7 µM
HOP-62 NSCLC
  TGI: 25.7 µM
HOP-92 NSCLC
  TGI: 10.2 µM
HS 578T breast
  TGI: 17.4 µM
HT29 colon
  TGI: 15 µM
IGROV1 ovarian
  TGI: 35.4 µM
K-562 leukemia
  TGI: 18.3 µM
KM12 colon
  TGI: 29.8 µM
LOX IMVI melanoma
  TGI: 25.4 µM
M14 melanoma
  TGI: 7.15 µM
MALME-3M melanoma
  TGI: 25.9 µM
MCF7 breast
  TGI: 25.3 µM
MDA-MB-231 breast
  TGI: 35 µM
MDA-MB-435
  TGI: 26.5 µM
MOLT-4 leukemia
  TGI: 21.9 µM
NCI-H226 lung
  TGI: 38.6 µM
NCI-H23 lung
  TGI: 31.7 µM
NCI-H460 lung
  TGI: 24.1 µM
NCI/ADR-RES ovarian
  TGI: > 100 µM
OVCAR-4 ovarian
  TGI: 26.7 µM
OVCAR-5 ovarian
  TGI: 20.5 µM
OVCAR-8 ovarian
  TGI: 33.9 µM
RPMI-8226 leukemia
  TGI: 28.1 µM
RXF 393 renal
  TGI: 26.7 µM
SF-268 CNS
  TGI: 30.9 µM
SF-295 CNS
  TGI: 27.4 µM
SF-539 CNS
  TGI: 25.5 µM
SK-MEL-28 melanoma
  TGI: 25.6 µM
SK-MEL-5 melanoma
  TGI: 23.5 µM
SK-OV-3 ovarian
  TGI: 26.7 µM
SN12C renal
  TGI: 31.6 µM
SNB-19 CNS
  TGI: 23.3 µM
SNB-75 CNS
  TGI: 25.1 µM
SR leukemia
  TGI: 22 µM
SW-620 colon
  TGI: 27.7 µM
T-47D breast
  TGI: 30.4 µM
TK-10 renal
  TGI: 28.1 µM
U251 CNS
  TGI: 28.1 µM
UACC-257 melanoma
  TGI: 16.5 µM
UACC-62 melanoma
  TGI: 26.7 µM
UO-31 renal
  TGI: 10.8 µM

## S=c1cn[nH]c2ccc(Br)cc12
786-0 renal
  TGI: > 100 µM
A498 renal
  TGI: > 100 µM
A549 NSCLC
  TGI: > 100 µM
ACHN renal
  TGI: > 100 µM
BT-549 breast
  TGI: > 100 µM
CAKI-1 renal
  TGI: > 100 µM
CCRF-CEM leukemia
  TGI: > 100 µM
COLO 205 colon
  TGI: > 100 µM
DU-145 prostate
  TGI: > 100 µM
EKVX NSCLC
  TGI: 75.3 µM
HCC-2998 colon
  TGI: > 100 µM
HCT-116 colon
  TGI: > 100 µM
HCT-15 colon
  TGI: > 100 µM
HL-60(TB) leukemia
  TGI: > 100 µM
HOP-62 NSCLC
  TGI: > 100 µM
HOP-92 NSCLC
  TGI: > 100 µM
HS 578T breast
  TGI: > 100 µM
HT29 colon
  TGI: > 100 µM
IGROV1 ovarian
  TGI: > 100 µM
K-562 leukemia
  TGI: > 100 µM
KM12 colon
  TGI: > 100 µM
LOX IMVI melanoma
  TGI: > 100 µM
M14 melanoma
  TGI: > 100 µM
MALME-3M melanoma
  TGI: 79 µM
MCF7 breast
  TGI: > 100 µM
MDA-MB-231 breast
  TGI: > 100 µM
MDA-MB-435
  TGI: > 100 µM
MOLT-4 leukemia
  TGI: > 100 µM
NCI-H226 lung
  TGI: > 100 µM
NCI-H23 lung
  TGI: > 100 µM
NCI-H460 lung
  TGI: > 100 µM
NCI-H522 lung
  TGI: 91.6 µM
NCI/ADR-RES ovarian
  TGI: > 100 µM
OVCAR-3 ovarian
  TGI: > 100 µM
OVCAR-4 ovarian
  TGI: > 100 µM
OVCAR-5 ovarian
  TGI: > 100 µM
OVCAR-8 ovarian
  TGI: > 100 µM
RPMI-8226 leukemia
  TGI: > 100 µM
RXF 393 renal
  TGI: 70.7 µM
SF-268 CNS
  TGI: > 100 µM
SF-295 CNS
  TGI: > 100 µM
SF-539 CNS
  TGI: > 100 µM
SK-MEL-2 melanoma
  TGI: 71.3 µM
SK-MEL-28 melanoma
  TGI: > 100 µM
SK-MEL-5 melanoma
  TGI: > 100 µM
SK-OV-3 ovarian
  TGI: > 100 µM
SN12C renal
  TGI: > 100 µM
SNB-19 CNS
  TGI: > 100 µM
SNB-75 CNS
  TGI: > 100 µM
SR leukemia
  TGI: > 100 µM
SW-620 colon
  TGI: > 100 µM
T-47D breast
  TGI: > 100 µM
TK-10 renal
  TGI: > 100 µM
U251 CNS
  TGI: > 100 µM
UACC-257 melanoma
  TGI: > 100 µM
UACC-62 melanoma
  TGI: > 100 µM
UO-31 renal
  TGI: > 100 µM
